Data published in ChEMBL document CHEMBL3885881, “DrugMatrix”.

Species on record: Rattus norvegicus
Test: DrugMatrix - Regimen: Daily Repeat
Assay type: toxicity, organism-based, Sprague-Dawley
Set-up: regimen Daily Repeat, gender Male, age 6-8 weeks
Details: in vivo, po, route oral GAVAGE, vehicle .5 % CMC; for ABSOLUTE BASOPHIL / ABSOLUTE EOSINOPHIL / ABSOLUTE LYMPHOCYTE / ABSOLUTE MONOCYTE / ABSOLUTE SEGMENTED NEUTROPHIL / BASOPHIL / EOSINOPHIL / ERYTHROCYTE COUNT / HEMATOCRIT / HEMOGLOBIN / LEUKOCYTE COUNT / LYMPHOCYTE / MEAN CORPUSCULAR HEMOGLOBIN / MEAN CORPUSCULAR HEMOGLOBIN CONCENTRATION / MEAN CORPUSCULAR VOLUME / MONOCYTE / NEUTROPHIL / NUCLEATED RED BLOOD CELLS / PLATELET COUNT: tissue Blood; for ALANINE AMINOTRANSFERASE / ALBUMIN / ALKALINE PHOSPHATASE / ASPARTATE AMINOTRANSFERASE / BLOOD UREA NITROGEN / CARBON DIOXIDE / CHLORIDE / CHOLESTEROL / CREATINE PHOSPHOKINASE / CREATININE / GLUCOSE / LACTATE DEHYDROGENASE / LIPASE / PHOSPHORUS / POTASSIUM / SODIUM / TOTAL BILIRUBIN / TOTAL PROTEIN / URIC ACID: tissue Plasma
[1] = 0 mg/kg, 72 h, dose level Control, time 3 day
[2] = 0 mg/kg, 120 h, dose level Control, time 5 day
[3] = 100 mg/kg, 72 h, dose level Low, time 3 day

## CO[C@H]1/C=C/O[C@@]2(C)Oc3c(C)c(O)c4c(c3C2=O)C2=NC3(CCN(CC(C)C)CC3)NC2=C(NC(=O)/C(C)=C\C=C\[C@H](C)[C@H](O)[C@@H](C)[C@@H](O)[C@@H](C)[C@H](OC(C)=O)[C@@H]1C)C4=O [RIFABUTIN]
[1]
  ABSOLUTE BASOPHIL: 0 CELLS/uL
  ABSOLUTE EOSINOPHIL: 0 CELLS/uL
  ABSOLUTE LYMPHOCYTE: 12269.67 CELLS/uL
  ABSOLUTE MONOCYTE: 160.33 CELLS/uL
  ABSOLUTE SEGMENTED NEUTROPHIL: 970 CELLS/uL
  BASOPHIL: 0%
  EOSINOPHIL: 0%
  ERYTHROCYTE COUNT: 5.76 x10E6/uL
  HEMATOCRIT: 36.57%
  HEMOGLOBIN: 14.22 G/DL
  LEUKOCYTE COUNT: 13.4 x10E3/uL
  LYMPHOCYTE: 91.67%
  MEAN CORPUSCULAR HEMOGLOBIN: 24.67 pg
  MEAN CORPUSCULAR HEMOGLOBIN CONCENTRATION: 38.85 G/DL
  MEAN CORPUSCULAR VOLUME: 63.52 fL
  MONOCYTE: 1.17%
  NEUTROPHIL: 7.17%
  NUCLEATED RED BLOOD CELLS: 0.33 /100WBC
  PLATELET COUNT: 1250.83 x10E3/uL
  ALANINE AMINOTRANSFERASE: 49.17 u/L
  ALBUMIN: 4.33 G/DL
  ALKALINE PHOSPHATASE: 378.5 u/L
  ASPARTATE AMINOTRANSFERASE: 82.17 u/L
  BLOOD UREA NITROGEN: 15 mg/dL
  CARBON DIOXIDE: 34.33 mmol/L
  CHLORIDE: 99.17 MEQ/L
  CHOLESTEROL: 71.17 mg/dL
  CREATINE PHOSPHOKINASE: 258.67 u/L
  CREATININE: 0.18 mg/dL
  GLUCOSE: 142.67 mg/dL
  LACTATE DEHYDROGENASE: 154.33 u/L
  LIPASE: 9 u/L
  PHOSPHORUS: 11.67 mg/dL
  POTASSIUM: 7.13 MEQ/L
  SODIUM: 142.22 MEQ/L
  TOTAL BILIRUBIN: 0.18 mg/dL
  TOTAL PROTEIN: 5.77 G/DL
  URIC ACID: 1.55 mg/dL
[2]
  ABSOLUTE BASOPHIL: 0 CELLS/uL
  ABSOLUTE EOSINOPHIL: 23.33 CELLS/uL
  ABSOLUTE LYMPHOCYTE: 14943.67 CELLS/uL
  ABSOLUTE MONOCYTE: 32 CELLS/uL
  ABSOLUTE SEGMENTED NEUTROPHIL: 1084.33 CELLS/uL
  BASOPHIL: 0%
  EOSINOPHIL: 0.17%
  ERYTHROCYTE COUNT: 5.71 x10E6/uL
  HEMATOCRIT: 35.28%
  HEMOGLOBIN: 14.27 G/DL
  LEUKOCYTE COUNT: 16.08 x10E3/uL
  LYMPHOCYTE: 93%
  MEAN CORPUSCULAR HEMOGLOBIN: 25.02 pg
  MEAN CORPUSCULAR HEMOGLOBIN CONCENTRATION: 40.43 G/DL
  MEAN CORPUSCULAR VOLUME: 61.82 fL
  MONOCYTE: 0.17%
  NEUTROPHIL: 6.67%
  NUCLEATED RED BLOOD CELLS: 0.33 /100WBC
  PLATELET COUNT: 1274 x10E3/uL
  ALANINE AMINOTRANSFERASE: 54.17 u/L
  ALBUMIN: 4.22 G/DL
  ALKALINE PHOSPHATASE: 373.17 u/L
  ASPARTATE AMINOTRANSFERASE: 81.83 u/L
  BLOOD UREA NITROGEN: 16.67 mg/dL
  CARBON DIOXIDE: 30.33 mmol/L
  CHLORIDE: 99 MEQ/L
  CHOLESTEROL: 71 mg/dL
  CREATINE PHOSPHOKINASE: 273.5 u/L
  CREATININE: 0.22 mg/dL
  GLUCOSE: 141.83 mg/dL
  LACTATE DEHYDROGENASE: 153.67 u/L
  LIPASE: 10.33 u/L
  PHOSPHORUS: 11.38 mg/dL
  POTASSIUM: 7.08 MEQ/L
  SODIUM: 142.75 MEQ/L
  TOTAL BILIRUBIN: 0.18 mg/dL
  TOTAL PROTEIN: 6.1 G/DL
  URIC ACID: 1.67 mg/dL
[3]
  ABSOLUTE BASOPHIL: 0 CELLS/uL
  ABSOLUTE EOSINOPHIL: 245.33 CELLS/uL
  ABSOLUTE LYMPHOCYTE: 18853.33 CELLS/uL
  ABSOLUTE MONOCYTE: 248 CELLS/uL
  ABSOLUTE SEGMENTED NEUTROPHIL: 1720 CELLS/uL
  BASOPHIL: 0%
  EOSINOPHIL: 1%
  ERYTHROCYTE COUNT: 5.43 x10E6/uL
  HEMATOCRIT: 36.1%
  HEMOGLOBIN: 14.33 G/DL
  LEUKOCYTE COUNT: 21.07 x10E3/uL
  LYMPHOCYTE: 89.33%
  MEAN CORPUSCULAR HEMOGLOBIN: 26.5 pg
  MEAN CORPUSCULAR HEMOGLOBIN CONCENTRATION: 39.7 G/DL
  MEAN CORPUSCULAR VOLUME: 66.67 fL
  MONOCYTE: 1.33%
  NEUTROPHIL: 8.33%
  NUCLEATED RED BLOOD CELLS: 0.67 /100WBC
  PLATELET COUNT: 1207.33 x10E3/uL
  ALANINE AMINOTRANSFERASE: 65.67 u/L
  ALBUMIN: 4.37 G/DL
  ALKALINE PHOSPHATASE: 375 u/L
  ASPARTATE AMINOTRANSFERASE: 96.33 u/L
  BLOOD UREA NITROGEN: 13 mg/dL
  CARBON DIOXIDE: 25.67 mmol/L
  CHLORIDE: 103 MEQ/L
  CHOLESTEROL: 84.33 mg/dL
  CREATINE PHOSPHOKINASE: 380 u/L
  CREATININE: 0.35 mg/dL
  GLUCOSE: 158 mg/dL
  LACTATE DEHYDROGENASE: 212.67 u/L
  LIPASE: 10.67 u/L
  PHOSPHORUS: 12.8 mg/dL
  POTASSIUM: 6.31 MEQ/L
  SODIUM: 145.97 MEQ/L
  TOTAL BILIRUBIN: 0.23 mg/dL
  TOTAL PROTEIN: 6.1 G/DL
  URIC ACID: 1.97 mg/dL
